The values that follow are results of earlier work, collected in US20090325807A1, “Method of Improving Plant Growth” (Bayer Cropscience AG, priority 2004, published 2009).

The test system of the data set is cucumis melo L. The following applies: in the absence of insects.

With `O=[N+]([O-])NC1=NCCN1Cc1ccc(Cl)nc1` [imidacloprid, Imidacloprid], the growth effect result was “no growth effect”.
